In ChEMBL document CHEMBL6127027, “Conserved gatekeeper methionine regulates the binding and access of kinase inhibitors to ATP sites of MAP2K1, 4, and 7: Clues for developing selective inhibitors” (Bioorg Med Chem Lett, 2024):
Active and inactive are the calls of the source. The rule behind the calls is not given here.

Assays:
[1] = biological target: Dual specificity mitogen-activated protein kinase kinase 1 (Homo sapiens, UniProt Q02750); assay: Inhibition of MAP2K1 (unknown origin)
[2] = biological target: T1, Dual specificity mitogen-activated protein kinase kinase 4 (Homo sapiens) (UniProt P45985); assay: Inhibition of MAP2K4 (unknown origin) at 100 uM
T1 sequence (whole entry): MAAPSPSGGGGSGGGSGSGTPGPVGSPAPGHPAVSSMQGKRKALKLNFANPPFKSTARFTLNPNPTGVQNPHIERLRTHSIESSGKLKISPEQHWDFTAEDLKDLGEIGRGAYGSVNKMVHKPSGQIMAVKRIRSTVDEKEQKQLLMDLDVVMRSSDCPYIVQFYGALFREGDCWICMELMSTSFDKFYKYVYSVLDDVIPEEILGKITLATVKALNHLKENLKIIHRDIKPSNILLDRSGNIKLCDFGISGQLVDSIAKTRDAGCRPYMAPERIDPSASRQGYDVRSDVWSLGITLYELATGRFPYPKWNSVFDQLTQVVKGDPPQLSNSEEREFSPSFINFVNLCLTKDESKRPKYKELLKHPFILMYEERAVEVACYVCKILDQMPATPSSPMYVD

[3] = biological target: T2, Dual specificity mitogen-activated protein kinase kinase 7 (Homo sapiens) (UniProt O14733); assay: Inhibition of MAP2K7 (unknown origin) at 100 uM relative to control
T2 sequence (whole entry): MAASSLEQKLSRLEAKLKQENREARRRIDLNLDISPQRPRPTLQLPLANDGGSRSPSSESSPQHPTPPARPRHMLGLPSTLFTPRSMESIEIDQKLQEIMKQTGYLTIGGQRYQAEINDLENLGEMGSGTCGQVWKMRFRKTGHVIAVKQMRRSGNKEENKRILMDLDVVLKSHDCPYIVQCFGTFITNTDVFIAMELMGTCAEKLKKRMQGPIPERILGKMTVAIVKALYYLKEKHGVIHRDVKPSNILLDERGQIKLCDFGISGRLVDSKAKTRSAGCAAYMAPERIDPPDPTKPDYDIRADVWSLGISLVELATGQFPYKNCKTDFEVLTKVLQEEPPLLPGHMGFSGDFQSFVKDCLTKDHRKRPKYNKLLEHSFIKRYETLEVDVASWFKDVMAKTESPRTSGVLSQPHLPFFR

[4] = biological target: T3, Dual specificity mitogen-activated protein kinase kinase 4 (Homo sapiens, UniProt P45985); assay: Inhibition of MAP2K4 (unknown origin)
T3 sequence (P45985 whole entry): T1 sequence (whole entry)

Dual specificity mitogen-activated protein kinase kinase 1, sequence (Q02750 whole entry): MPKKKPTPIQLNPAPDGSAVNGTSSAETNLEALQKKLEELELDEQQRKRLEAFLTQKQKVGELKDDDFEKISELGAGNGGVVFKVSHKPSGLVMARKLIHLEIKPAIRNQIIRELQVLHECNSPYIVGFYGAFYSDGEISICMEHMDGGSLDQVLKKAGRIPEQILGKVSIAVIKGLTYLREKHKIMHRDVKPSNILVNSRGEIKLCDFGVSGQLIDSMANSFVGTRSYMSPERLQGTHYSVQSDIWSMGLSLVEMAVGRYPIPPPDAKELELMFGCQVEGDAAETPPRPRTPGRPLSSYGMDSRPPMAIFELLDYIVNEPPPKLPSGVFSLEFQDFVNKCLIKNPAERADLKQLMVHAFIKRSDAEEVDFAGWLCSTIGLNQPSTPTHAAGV

SMILES | IC50 [1] [µM] | inhibition [2] | inhibition [3] [%] | IC50 [4] [µM]
COc1cc(O)c2c(c1)/C=C/C[C@H](O)[C@H](O)C(=O)CCC[C@H](C)OC2=O | 5.2 | inactive | 25 | –
COc1cc(O)c2c(c1)/C=C/C[C@H](O)[C@H](O)C(=O)/C=C\C[C@H](C)OC2=O | – | – | – | 4.7
